MIC80 data for six molecules are collected here from ChEMBL document CHEMBL3576794, “Decaprenylphosphoryl-β-d-ribose 2'-Epimerase 1 (DprE1): A Novel Therapeutic Target for the Treatment of Tuberculosis” (2015).

Converted amounts (≈) assume the structure as drawn. Some results are limits rather than exact numbers.

The subject of this experiment is Mycobacterium tuberculosis. The experiment is described as follows: Antibacterial activity against Mycobacterium tuberculosis H37Rv ATCC 27294 after 5 days by microdilution method. It is filed as functional. The note with it: H37Rv ATCC 27294, 120 h. In general terms: Dilution methods test growth across graded concentrations, often in twofold steps.
As usually defined, the MIC80 is an inhibitory concentration at the 80% level, which refers to growth in some studies and to a panel of isolates in others. A higher MIC80 goes with lower susceptibility. Molecule `COc1ncnc(Cn2cc(C(=O)NCCF)c3ncccc32)c1C` gave an MIC80 of 1.56 µM (≈ 0.536 µg/mL).

With `COc1ncnc(Cn2cc(C(=O)NCCF)c3ncc(Br)cc32)c1C`, the MIC80 was found to be 0.781 µM (≈ 0.33 µg/mL).

Turning to `COc1cnc2c(C(=O)NCC(F)F)cn(Cc3ncnc(OC)c3C)c2c1`, the MIC80 is under 0.39 µM.

As for `CC(c1c(F)cccc1F)n1cc(C(=O)NCCF)c2ncccc21` (stereo unspecified), the MIC80 was determined as 12.5 µM (≈ 4.34 µg/mL).

On to `COc1ncnc(Cn2cc(C(=O)NC[C@@H](C)O)c3ncc(C)cc32)c1C`, for which the MIC80 was 6.52 µM (≈ 2.41 µg/mL). This MIC80 is about 1.9-fold lower than that of the molecule before.

Regarding `COc1ncnc(Cn2cc(C(=O)NCCO)c3ncc(C)cc32)c1C` [TBA-7371], the MIC80 is 1.56 µM (≈ 0.554 µg/mL).
